The source of these data is patent US8748480B2, “Methods for treating opioid tolerance” (priority 2005, dated 2014).

For assay [1], the target named is T1, Gβ1γ2 His62Ala (Rattus norvegicus, UniProt P54311, H62A).
T1 construct: made in house; host or cells: Sf9 insect cells (baculovirus)
In words: Phage ELISA, b-βγ mutant His62Ala. Format: binding. Particulars: phage displaying SIGK peptide. An excerpt: (§1) Wild-type Gβ1 and Gβ1 mutants were made in the baculovirus vector PDW464 which encodes a biotinylation site at a lysine upstream of the amino terminus of Gβ1 (Goubaeva, et al. (2003) supra). Mutants were generated by overlap extension PCR using standard protocols. The wild-type and mutant Gβ1 constructs consisted of a 20 amino acid biotin acceptor peptide (BAP) sequence fused in-frame with the amino-terminus of rat Gβ1 subunit. When coexpressed with biotin holoenzyme synthetase (BirA) in Sf9 cells, the Gβ1 subunit becomes covalently biotinylated in vivo at the Specific lysine acceptor residue in the BAP. Using this approach, 1-2 mg protein of purified protein can be obtained per liter of Sf9 insect cells. As 45 ng of protein is used in the phage ELISA assay, a single purification is sufficient for 10,000 to 30,000 binding assays.
(§2) Phage ELISA assays used to assess peptide binding to wild-type and mutant b-βγ were performed according to standard methods (Smrcka and Scott (2002) Methods Enzymol. 344:557-76). Briefly, 1 μg streptavidin was immobilized in the well of a 96-six well plate overnight at 4° C. […] The wells were washed, followed by the addition of 40 μL of (2,2′-Azino-bis(3-ethylbenzthiazoline)-6-sulfonic acid (ABTS) and the colorimetric reaction was monitored at 405 nm. Non-specific binding was subtracted for each reading. […]
A general note: An ELISA detects its analyte on a solid surface through an enzyme-linked reagent.

The target in assay [2] is T2, Gβ1γ2 Met101Ala (Rattus norvegicus, UniProt P54311, M101A).
T2 construct: made in house; host or cells: Sf9 insect cells (baculovirus)
In words: Phage ELISA, b-βγ mutant Met101Ala. Format: binding. The following applies: Gβ1γ2 Met101Ala; phage displaying SIGK peptide.
Source text: as §1
(§3) Phage ELISA assays used to assess peptide binding to wild-type and mutant b-βγ were performed according to standard methods (Smrcka and Scott (2002) Methods Enzymol. 344:557-76). Briefly, 1 μg streptavidin was immobilized in the well of a […] overnight at 4° C. The wells were blocked with 100 μL of 2% bovine serum albumin (BSA) in Tris-buffered saline (TBS) for 1 hour at 4° C. followed by three washes of 1×TBS/0.5% TWEEN®. Forty μL of 25 nM bGβ1γ2 in TBS/0.5% TWEEN® was added to each well and incubated at 4° C. for 1.5 hour. The wells were washed, followed by the addition of 1×10^6 to 1×10^10 phage particles and incubated at 4° C. for 3 hours. The wells were then washed six times with TBS/0.5% TWEEN® followed by addition of 40 μL of 1:5000 dilution of anti-M13 antibody (Pharmacia, Uppsala, Sweden) and incubated at room temperature for 1 hour. The wells were washed, followed by the addition of 40 μL of (2,2′-Azino-bis(3-ethylbenzthiazoline)-6-sulfonic acid (ABTS) and the colorimetric reaction was monitored at 405 nm. Non-specific binding was subtracted for each reading.
(§4) Both assays were then carried out with Gβ1γ2 heterodimers containing mutations in the Gβ1 subunit.
(§5) The nine peptides were selected to represent the different consensus groups of peptides previously identified (See Scott et al. (2001) supra; Table 9) and to compare binding characteristics within and between consensus groups. […] As disclosed herein, the binding signal obtained in the ELISA assay was correlated to a loss in affinity by comparing the results to behavior of the peptide in a solution based assay. […] For the purposes of present disclosure, any substitution that decreased the binding to less than 20% of the wild-type binding was considered to be a critical binding contact for that peptide.

The target in assay [3] is T3, wild-type b-Gβ1γ2 (Fαi1 binding) (Rattus norvegicus, UniProt P54311).
T3 construct: made in house; host or cells: Sf9 insect cells (baculovirus) for b-βγ
Nature of the assay: Flow cytometry competition for FITC-Gαi1 binding to immobilized wild-type b-βγ. Particulars: Log [SIGK] M −7.
Source text: as §1, with “BAP.” for “BAP. Using this approach, 1-2 mg protein of purified protein can be obtained per liter of Sf9 insect cells. As 45 ng of protein is used in the phage ELISA assay, a single purification is sufficient for 10,000 to 30,000 binding assays.”
(§6) Blocking of Gαi•Gβ1γ2 binding was assessed by simultaneously adding 200 pM FITC-Gαi with or without SICK to 50 pM immobilized b-βγ and measuring the amount of FITC-Gαi bound to the beads by flow cytometry according to standard methods (Ghosh, et al. (2003) supra; Sarvazyan, et al. (1998) J. Biol. Chem. 273:7934-40).
(§7) Fluorescein-labeled Gαi1 (Fαi1) was prepared in accordance with standard methods (Sarvazyan, et al. (1998) supra). Assays were used to determine peptide effects on Gα-Gβγ interactions included competition and dissociation assays (Ghosh, et al. (2003) supra). […] The bead-associated fluorescence was then recorded in a BD Biosciences FACSCALIBUR™ flow cytometer. Data was corrected for background fluorescence and fit with a sigmoid dose response curve using Graph Pad Prism 4. […]
(In flow cytometry, cells or beads pass a laser one at a time.)

Assay [4] concerns the target T4, b-βγ Trp332Ala (Fαi1 binding) (Rattus norvegicus, UniProt P54311, W332A).
T4 construct: made in house; host or cells: Sf9 insect cells (baculovirus)
Nature of the assay: Flow cytometry competition for FITC-Gαi1 binding, b-βγ Trp332Ala. Particulars: Log [SIGK] M −7.
Source text: as §1, with “BAP.” for “BAP. Using this approach, 1-2 mg protein of purified protein can be obtained per liter of Sf9 insect cells. As 45 ng of protein is used in the phage ELISA assay, a single purification is sufficient for 10,000 to 30,000 binding assays.”
as §6, §7

Assay [5] deals with T5, Gβ1γ2 Met188Ala (Rattus norvegicus, UniProt P54311, M188A).
T5 construct: made in house; host or cells: Sf9 insect cells (baculovirus)
Nature of the assay: Phage ELISA, b-βγ mutant Met188Ala. The following applies: Gβ1γ2 Met188Ala; phage displaying SIGK peptide. The format is binding.
Source text: as §1, §3, §4, §5

Assay [6] has as its target T6, Gβ1γ2 Asp246Ser (Rattus norvegicus, UniProt P54311, D246S).
T6 construct: made in house; host or cells: Sf9 insect cells (baculovirus)
Nature of the assay: Phage ELISA, b-βγ mutant Asp246Ser. The format is binding. Particulars: Gβ1γ2 Asp246Ser; phage displaying SIGK peptide.
Source text: as §1, §3, §4, §5

In assay [7] the target is T7, b-βγ Arg314Ala (Fαi1 binding) (Rattus norvegicus, UniProt P54311, R314A).
T7 construct: made in house; host or cells: Sf9 insect cells (baculovirus)
In words: Flow cytometry competition for FITC-Gαi1 binding, b-βγ Arg314Ala. Particulars: Log [SIGK] M −7.
Source text: as §1, with “BAP.” for “BAP. Using this approach, 1-2 mg protein of purified protein can be obtained per liter of Sf9 insect cells. As 45 ng of protein is used in the phage ELISA assay, a single purification is sufficient for 10,000 to 30,000 binding assays.”
as §6, §7

The target of assay [8] is T8, Gβ1γ2 Arg314Ala (Rattus norvegicus, UniProt P54311, R314A).
T8 construct: made in house; host or cells: Sf9 insect cells (baculovirus)
Nature of the assay: Phage ELISA, b-βγ mutant Arg314Ala. Format: binding. The following applies: Gβ1γ2 Arg314Ala; phage displaying SIGK peptide.
Source text: as §1, §3, §4, §5

The target in assay [9] is T9, Gβ1γ2 His311Ala (Rattus norvegicus, UniProt P54311, H311A).
T9 construct: made in house; host or cells: Sf9 insect cells (baculovirus)
In words: Phage ELISA, b-βγ mutant His311Ala. The following applies: Gβ1γ2 His311Ala; phage displaying SIGK peptide. The format is binding.
Source text: as §1, §3, §4, §5

For assay [10], the target named is T10, Gβ1γ2 Trp332Ala (Rattus norvegicus, UniProt P54311, W332A).
T10 construct: made in house; host or cells: Sf9 insect cells (baculovirus)
Nature of the assay: Phage ELISA, b-βγ mutant Trp332Ala. The format is binding. The following applies: Gβ1γ2 Trp332Ala; phage displaying SIGK peptide.
Source text: as §1, §3, §4, §5

Assay [11] deals with T11, Gβ1γ2 Tyr145Ala (Rattus norvegicus, UniProt P54311, Y145A).
T11 construct: made in house; host or cells: Sf9 insect cells (baculovirus)
In words: Phage ELISA, b-βγ mutant Tyr145Ala. Particulars: Gβ1γ2 Tyr145Ala; phage displaying SIGK peptide. Format: binding.
Source text: as §1, §3, §4, §5

The target of assay [12] is T12, Gβ1γ2 Lys57Ala (Rattus norvegicus, UniProt P54311, K57A).
T12 construct: made in house; host or cells: Sf9 insect cells (baculovirus)
Nature of the assay: Phage ELISA, b-βγ mutant Lys57Ala. The format is binding. The following applies: Gβ1γ2 Lys57Ala; phage displaying SIGK peptide.
Source text: as §1, §3, §4, §5

Assay [13] concerns the target T13, Gβ1γ2 Leu117Ala (Rattus norvegicus, UniProt P54311, L117A).
T13 construct: made in house; host or cells: Sf9 insect cells (baculovirus)
Nature of the assay: Phage ELISA, b-βγ mutant Leu117Ala. Format: binding. Particulars: Gβ1γ2 Leu117Ala; phage displaying SIGK peptide.
Source text: as §1, §3, §4, §5

Assay [14] concerns the target T14, Gβ1γ2 Trp99Ala (Rattus norvegicus, UniProt P54311, W99A).
T14 construct: made in house; host or cells: Sf9 insect cells (baculovirus)
In words: Phage ELISA, b-βγ mutant Trp99Ala. The format is binding.
Source text: as §1, §3, §4, §5

The target of assay [15] is T15, Gβ1γ2 Phe292Ala (Rattus norvegicus, UniProt P54311, F292A).
T15 construct: made in house; host or cells: Sf9 insect cells (baculovirus)
In words: Phage ELISA, b-βγ mutant Phe292Ala. Format: binding. Particulars: phage displaying SIGK peptide.
Source text: as §1, §2

Regarding `CC[C@H](C)[C@H](NC(=O)[C@H](CCCCN)NC(=O)[C@H](Cc1ccccc1)NC(=O)[C@H](C)NC(=O)[C@H](CCCCN)NC(=O)CNC(=O)[C@@H](NC(=O)[C@@H](N)CO)[C@@H](C)CC)C(=O)N[C@@H](CC(C)C)C(=O)NCC(=O)N[C@@H](Cc1ccc(O)cc1)C(=O)N1CCC[C@H]1C(=O)N[C@@H](CC(=O)O)C(=O)N[C@@H](Cc1ccc(O)cc1)C(=O)N[C@@H](CC(=O)O)C(=O)O` [SIGK], the “% of Wild-Type Signal (mean ± SD)” value in assay [1] is recorded as 111.2 ± 11.3%; in assay [2], 32.2 ± 15.5%; in assay [5], 2.5 ± 3.7%; in assay [6], 66.5 ± 7.5%; in assay [8], 50.2 ± 5.0%; in assay [9], 94.3 ± 18.9%. Besides, the “% of Wild-Type Signal (mean ± SD)” value in assay [10] amounted to 7.1 ± 3.7%; in [11] it was 0.8 ± 0.9%; in [12] it was 18.6 ± 4.6%; in assay [13], 2.1 ± 2.4%; in assay [14] (Gβ1γ2 Trp99Ala, phage displaying SIGK peptide) it was 66.0 ± 7.7%; in assay [15] it was 109.1 ± 21.4%. The “% Maximal Fα Binding (± SD)” value in [3], in assay [4] and in assay [7] was 100.0 ± 0.0% throughout. This compound also registered a decrease in affinity in assay [14] (Trp99 mutation of Gβ1) of 4 fold.
